Assay results reported in patent US20040102360A1, “Combination therapy” (priority 2002, published 2004).

Tests used:
LnCaP cells = assay: Caspase 3 activation apoptosis assay in LnCaP cells; assay type: cell-based, human
Experimental: (§1) The herein disclosed inhibitors were evaluated as to the ability to increase cell death. Inhibitors of Akt and inhibitors of Akt and a protein kinase were assessed alone and in combination to determine the effect on caspase 3 activation.
(§2) Apoptosis Assay: Caspase 3 Activation
(§3) Cells were seeded in 96 well plates at concentrations ranging from 2×10^3 to 1×10^4 cells per well in their respective growth media. For anchorage independent assays (spheroids) cells were plated in 96 well plates that had been coated with poly-heme(poly 2-hydroxyethylmethacrylate [Sigma] 10 mg/ml in 95% ethanol). 72 hours later caspase 3 assays were set up as follows:
(§4) a. For standard combination assays, compounds were added at respective concentrations indicated and plates incubated at 37° C. in a CO2 incubator for 18 hours. For standard combination assays utilizing treatment with camptothecin, compounds and camptothecin were added at the same time at the respective concentrations indicated.
(§5) b. For combinations involving addition of the death receptor ligand TRAIL/Apo2L (Research Diagnostics) compounds were added for 1.5 hours prior to addition of TRAIL and plates incubated an additional 3 to 4 hours post TRAIL addition. In the case of the time course, plates were incubated for 2, 3, 4, 5, 6 and 7 hrs with Trail ligand before ending the assay. […]

LnCaP/Akt3 cell line = assay: Caspase 3 activation apoptosis assay in LnCaP/Akt3 cells; assay type: cell-based, human; details: FIG. 4 (b)
Experimental: as §1, §2, §3, §4, §5

MDA-MB468 cells = assay: Caspase 3 activation apoptosis assay in MDA-MB468 cells; assay type: cell-based, human; details: FIG. 6 (a)
Experimental: as §1, §2, §3, §4, §5

Akt1, Akt2 and Akt3 = assay: Akt kinase assays (HTRF, GSK-derived biotinylated peptide substrate); assay type: biochemical, human; details: as characterised in the figure legends
Experimental: Activated AKT isoforms and pleckstrin homology domain deletion constructs were assayed utilizing a GSK-derived biotinylated peptide substrate. The extent of peptide phosphorylation was determined by Homogeneous Time Resolved Fluorescence (HTRF) using a lanthamide chelate (Lance)-coupled monoclonal antibody specific for the phosphopeptide in combination with a streptavidin-linked allophycocyanin (SA-APC) fluorophore which will bind to the biotin moiety on the peptide. When the Lance and APC are in proximity (i.e. bound to the same phosphopeptide molecule), a non-radiative energy transfer takes place from the Lance to the APC, followed by emission of light from APC at 665 nm.
The reaction is assembled by adding 16 TL of the ATP/MgCl2 working solution to the appropriate wells of a 96-well microtiter plate. Inhibitor or vehicle (1.0 Tl) is added followed by 10 Tl of peptide working solution. The reaction is started by adding 13 Tl of the enzyme working solution and mixing. The reaction is allowed to proceed for 50 min and then stopped by the addition of 60 Tl HTRF quench buffer. The stopped reactions were incubated at room temperature for at least 30 min and then read on the Discovery instrument.

MCF7 cells = assay: Caspase 3 activation apoptosis assay in MCF7 cells; assay type: cell-based, human; details: co-treatment with Camptothecin, FIG. 3
Experimental: as §1, §2, §3, §4, §5

Row | SMILES | Caspase 3 activity in the presence of Trail (LnCaP cells; FIG. 4 (a)) | Caspase 3 activity in the presence of Trail (LnCaP/Akt3 cell line) | Caspase 3 activity in the presence of Trail (MDA-MB468 cells) | Akt isoform selectivity (Akt1, Akt2 and Akt3) | fold increase in Caspase 3 activation over Camptothecin alone (MCF7 cells) [fold] | fold increase in Caspase 3 activation over Trail alone (LnCaP cells; + TRAIL ligand, FIG. 1) [fold]
1 | CN(C)CC(C)(C)CNc1nn2c(-c3ccccc3)nnc2cc1C1CCC1 [Compound 1, N′-(7-Cyclobutyl-3-phenyl-[1,2,4]triazolo[4,3-b]pyridazin-6-yl)-2,2,N,N-tetramethyl-propane-1,3-diamine] | increase in Caspase 3 activity | increase in Caspase 3 activity | increase in Caspase 3 activity | selective Akt1 inhibitor | – | –
2 | O=c1[nH]c2ccccc2n1C1CCN(Cc2ccc(-c3nc4cc5nc[nH]c5cc4nc3-c3ccccc3)cc2)CC1 [Compound 12-5, 1-{1-[4-(7-Phenyl-1H-imidazo[4,5-g]quinoxalin-6-yl)benzyl]piperidin-4-yl}-1,3-dihydro-2H-benzimidazol-2-one] | – | – | – | selective Akt1 and Akt2 inhibitor | 5.8 | –
3 | NC(=O)c1[nH]c2ccc(Br)cc2c1S(=O)(=O)N1CCOCC1 [Compound A] | – | – | – | – | 8.7 | 1.2
